Like-named read-outs stand apart in the source and are kept apart here.

The assay addresses T1, Human GO (Homo sapiens, UniProt Q9UJM8).
T1 construct: purchased Novus Biologicals NBP1-72412
T1 sequence (Q9UJM8 1-370): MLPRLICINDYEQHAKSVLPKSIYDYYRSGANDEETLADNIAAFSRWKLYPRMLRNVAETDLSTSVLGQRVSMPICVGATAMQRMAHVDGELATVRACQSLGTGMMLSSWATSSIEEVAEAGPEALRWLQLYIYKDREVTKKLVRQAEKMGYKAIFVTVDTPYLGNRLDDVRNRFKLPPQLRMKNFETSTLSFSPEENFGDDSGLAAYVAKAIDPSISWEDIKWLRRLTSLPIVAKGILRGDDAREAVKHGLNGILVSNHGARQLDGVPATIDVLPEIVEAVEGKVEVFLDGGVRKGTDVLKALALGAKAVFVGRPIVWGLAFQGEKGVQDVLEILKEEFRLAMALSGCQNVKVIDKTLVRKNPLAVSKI
The assay is described as follows: GO enzymatic assay (coupled fluorescence/HRP assay, glycolate substrate). In kind it is biochemical. In short, it runs like this:
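Coupled HRP/fluorescence read-out of glycolate oxidation by human GO in 50 mM potassium phosphate buffer (pH 7). Inhibitors added across a concentration range.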

The mark [1] stands for this setting: Table 2, read-out: Range (range of IC50 values calculated from the enzymatic assays).

By IC50 is commonly meant the point on the concentration scale where inhibition reaches its midpoint. In the case of `CN1CCN(c2cccc(-c3ccc(Oc4nn[nH]c4C(=O)O)cc3)c2)CC1` [Compound 246, 4-((3′-(4-methylpiperazin-1-yl)-[1,1′-biphenyl]-4-yl)oxy)-1H-1,2,3-triazole-5-carboxylic acid 2,2,2-trifluoroacetate], under setting [1], the IC50 was 100 to 1000 nM. Still for that read-out and setting: under `O=C(O)c1[nH]nnc1Sc1ccc(-c2cccc(C3CCCCC3)c2)cc1` [Compound 247, 4-((3′-cyclohexyl-[1,1′-biphenyl]-4-yl)thio)-1H-1,2,3-triazole-5-carboxylic acid] stands < 100 nM; under `O=C(OCOC(=O)c1[nH]nnc1Oc1ccc2cc(Cl)ccc2c1)c1ccccc1` [Compound 249, (benzoyloxy)methyl 4-((6-chloronaphthalen-2-yl)oxy)-1H-1,2,3-triazole-5-carboxylate], 1000 to 10000 nM; under `O=C(O)c1[nH]nnc1Oc1ccc(-c2ccc3cccnc3c2)cc1` [Compound 250, 4-(4-(quinolin-7-yl)phenoxy)-1H-1,2,3-triazole-5-carboxylic acid 2,2,2-trifluoroacetate], < 100 nM. For the compound `CC(C)(C)C(=O)OCOC(=O)c1[nH]nnc1Oc1ccc2cc(Cl)ccc2c1` [Compound 251, (pivaloyloxy)methyl 4-((6-chloronaphthalen-2-yl)oxy)-1H-1,2,3-triazole-5-carboxylate], the IC50 under setting [1] is 1000 to 10000 nM.

Consider `CC(C)C(=O)OCOC(=O)c1[nH]nnc1Oc1ccc2c(c1)CCCC2` [Compound 252, (isobutyryloxy)methyl 4-((5,6,7,8-tetrahydronaphthalen-2-yl)oxy)-1H-1,2,3-triazole-5-carboxylate], for which the half-maximal inhibitory concentration (IC50) under setting [1] was 100 to 1000 nM.

Consider `O=C(O)c1[nH]nnc1Oc1cccc(OC2CC2)c1` [Compound 253, 4-(3-cyclopropoxyphenoxy)-1H-1,2,3-triazole-5-carboxylic acid 2,2,2-trifluoroacetate], for which the IC50 under setting [1] is < 100 nM. Same read-out and setting: for `O=C(O)c1[nH]nnc1Oc1ccc(Cl)c(OC(F)(F)F)c1` [Compound 254, 4-(4-chloro-3-(trifluoromethoxy)phenoxy)-1H-1,2,3-triazole-5-carboxylic acid] the value was < 100 nM; for `CC(=O)NCCOc1ccc(-c2ccc(Oc3nn[nH]c3C(=O)O)cc2)cc1` [Compound 255, 4-((4′-(2-acetamidoethoxy)-[1,1′-biphenyl]-4-yl)oxy)-1H-1,2,3-triazole-5-carboxylic acid], < 100 nM; for `CC(C)C(=O)OCOC(=O)c1[nH]nnc1OC1CCc2cc(Cl)c(Cl)cc2C1` (stereo not drawn) [Compound 256, (isobutyryloxy)methyl 4-((6,7-dichloro-1,2,3,4-tetrahydronaphthalen-2-yl)oxy)-1H-1,2,3-triazole-5-carboxylate], 100 to 1000 nM. For `O=C(O)c1[nH]nnc1Oc1ccc(-c2ccc3cnccc3c2)cc1` [Compound 257, 4-(4-(isoquinolin-6-yl)phenoxy)-1H-1,2,3-triazole-5-carboxylic acid], under setting [1], the half-inhibitory concentration (IC50) was < 100 nM. As to `CC(C)(C)C(=O)OCOC(=O)c1[nH]nnc1OC1CCc2cc(Cl)c(Cl)cc2C1` (stereo not drawn) [Compound 258, (pivaloyloxy)methyl 4-((6,7-dichloro-1,2,3,4-tetrahydronaphthalen-2-yl)oxy)-1H-1,2,3-triazole-5-carboxylate], the IC50 under setting [1] is 1000 to 10000 nM. On to `CC(=O)NCCOc1cccc(-c2ccc(Oc3nn[nH]c3C(=O)O)cc2)c1` [Compound 259, 4-((3′-(2-acetamidoethoxy)-[1,1′-biphenyl]-4-yl)oxy)-1H-1,2,3-triazole-5-carboxylic acid], for which the half-inhibitory concentration (IC50) under setting [1] was < 100 nM. In the case of `O=C(O)c1[nH]nnc1OC1CCN(c2ccc3cnccc3c2)CC1` [Compound 260, 4-((1-(isoquinolin-6-yl)piperidin-4-yl)oxy)-1H-1,2,3-triazole-5-carboxylic acid 2,2,2-trifluoroacetate], the IC50 under setting [1] is 100 to 1000 nM. On the same count and under the same terms, for `O=C(OCOC(=O)c1[nH]nnc1OC1CCc2cc(Cl)c(Cl)cc2C1)c1ccccc1` (stereo not drawn) [Compound 261, (benzoyloxy)methyl 4-((6,7-dichloro-1,2,3,4-tetrahydronaphthalen-2-yl)oxy)-1H-1,2,3-triazole-5-carboxylate] the value was 1000 to 10000 nM. On the same count and under the same terms, under `O=C(O)c1[nH]nnc1Oc1cccc(OCC2CC2)c1` [Compound 262, 4-(3-(cyclopropylmethoxy)phenoxy)-1H-1,2,3-triazole-5-carboxylic acid 2,2,2-trifluoroacetate] stands < 100 nM. Still for that read-out and setting: for `O=C(O)c1[nH]nnc1Oc1ccc(C2CCOCC2)cc1` [Compound 263, 4-(4-(tetrahydro-2H-pyran-4-yl)phenoxy)-1H-1,2,3-triazole-5-carboxylic acid 2,2,2-trifluoroacetate] the value was < 100 nM; for `O=C(O)c1[nH]nnc1COc1ccc(Cl)c(Cl)c1` [Compound 264, 4-((3,4-dichlorophenoxy)methyl)-1H-1,2,3-triazole-5-carboxylic acid 2,2,2-trifluoroacetate], < 100 nM; for `O=C(O)c1[nH]nnc1COc1ccc(-c2ccc(OC(F)(F)F)cc2)cc1` [Compound 265, 4-(((4′-(trifluoromethoxy)-[1,1′-biphenyl]-4-yl)oxy)methyl)-1H-1,2,3-triazole-5-carboxylic acid], < 100 nM. Take `O=C(O)c1[nH]nnc1COc1ccc(-c2ccc(Cl)c(Cl)c2)cc1` [Compound 266, 4-(((3′,4′-dichloro-[1,1′-biphenyl]-4-yl)oxy)methyl)-1H-1,2,3-triazole-5-carboxylic acid 2,2,2-trifluoroacetate]: the IC50 under setting [1] is < 100 nM. Same read-out and setting: for `CCC(=O)OCOC(=O)c1[nH]nnc1OC1CCc2cc(Cl)c(Cl)cc2C1` (stereo not drawn) [Compound 267, (propionyloxy)methyl 4-((6,7-dichloro-1,2,3,4-tetrahydronaphthalen-2-yl)oxy)-1H-1,2,3-triazole-5-carboxylate] the value was < 100 nM; for `O=C(O)c1[nH]nnc1Oc1ccc(C2CC(F)(F)C2)cc1` [Compound 268, 4-(4-(3,3-difluorocyclobutyl)phenoxy)-1H-1,2,3-triazole-5-carboxylic acid], < 100 nM; for `O=C(O)c1[nH]nnc1OCc1ccc(Cl)c(Cl)c1` [Compound 269, 4-((3,4-dichlorobenzyl)oxy)-1H-1,2,3-triazole-5-carboxylic acid], < 100 nM. Still for that read-out and setting: under `O=C(O)c1[nH]nnc1OC1CCN(c2ccc(Cl)cc2)CC1` [Compound 270, 4-((1-(4-chlorophenyl)piperidin-4-yl)oxy)-1H-1,2,3-triazole-5-carboxylic acid 2,2,2-trifluoroacetate] stands < 100 nM. The same measure, in the same setting: under `O=C(O)c1[nH]nnc1OC1Cc2cc(F)c(F)cc2C1` [Compound 271, 4-((5,6-difluoro-2,3-dihydro-1H-inden-2-yl)oxy)-1H-1,2,3-triazole-5-carboxylic acid] stands < 100 nM. As to `O=C(O)c1[nH]nnc1Oc1ccc(C2CCCCC2)cc1` [Compound 273, 4-(4-cyclohexylphenoxy)-1H-1,2,3-triazole-5-carboxylic acid], the half-inhibitory concentration (IC50) is < 100 nM. On to `O=C(O)c1[nH]nnc1OCc1ccc(-c2ccc(OC(F)(F)F)cc2)cc1` [Compound 274, 4-((4′-(trifluoromethoxy)-[1,1′-biphenyl]-4-yl)methoxy)-1H-1,2,3-triazole-5-carboxylic acid], for which, under setting [1], the IC50 is < 100 nM. In the case of `O=C(O)c1[nH]nnc1OC1CCC(c2ccc(OC(F)(F)F)cc2)C1` (stereo not drawn) [Compound 275, 4-((3-(4-(trifluoromethoxy)phenyl)cyclopentyl)oxy)-1H-1,2,3-triazole-5-carboxylic acid], under setting [1], the 50% inhibitory concentration (IC50) is < 100 nM. As for `O=C(O)c1[nH]nnc1SC1CCc2cc(Cl)c(Cl)cc2C1` (stereo not drawn) [Compound 277, 4-((6,7-dichloro-1,2,3,4-tetrahydronaphthalen-2-yl)thio)-1H-1,2,3-triazole-5-carboxylic acid], the IC50 under setting [1] is < 100 nM. For `O=C(OCOC(=O)c1[nH]nnc1Sc1ccc(-c2ccc(N3CCCCC3)cc2)cc1)c1ccccc1` [Compound 278, (benzoyloxy)methyl 4-((4′-(piperidin-1-yl)-[1,1′-biphenyl]-4-yl)thio)-1H-1,2,3-triazole-5-carboxylate], under setting [1], the IC50 was 1000 to 10000 nM.

In the case of `O=C(O)c1[nH]nnc1Oc1ccc(C2CCC(F)(F)CC2)cc1` [Compound 279, 4-(4-(4,4-difluorocyclohexyl)phenoxy)-1H-1,2,3-triazole-5-carboxylic acid], under setting [1], the IC50 was < 100 nM. `O=C(O)c1[nH]nnc1OC1CCC2(CC1)CC2` [Compound 280, 4-(spiro[2.5]octan-6-yloxy)-1H-1,2,3-triazole-5-carboxylic acid 2,2,2-trifluoroacetate]: the IC50 under setting [1] was < 100 nM. On the same count and under the same terms, for `CC1(C)CCCc2cc(Oc3nn[nH]c3C(=O)O)ccc21` [Compound 281, 4-((5,5-dimethyl-5,6,7,8-tetrahydronaphthalen-2-yl)oxy)-1H-1,2,3-triazole-5-carboxylic acid] the value was 100 to 1000 nM; for `O=C(O)c1[nH]nnc1OC1Cc2ccc(OC(F)(F)F)cc2C1` (stereo not drawn) [Compound 282, 4-((5-(trifluoromethoxy)-2,3-dihydro-1H-inden-2-yl)oxy)-1H-1,2,3-triazole-5-carboxylic acid], < 100 nM. The same measure, in the same setting: under `O=C(O)c1[nH]nnc1OC1CCC2(CCCCC2)CC1` [Compound 283, 4-(spiro[5.5]undecan-3-yloxy)-1H-1,2,3-triazole-5-carboxylic acid] stands < 100 nM; under `O=C(O)c1[nH]nnc1OC1CCC2(CCCC2)CC1` [Compound 284, 4-(spiro[4.5]decan-8-yloxy)-1H-1,2,3-triazole-5-carboxylic acid], < 100 nM.
